Laboratory results taken from patent US9958453B2, “Biological sensing method for separating biomolecule” (priority 2015, dated 2018).

Columns and labels:
[1] = tested on: UlaG protein; assay: Phage display peptide screening against UlaG protein on ELISA plate; type: binding; conditions: UlaG protein expressed by Escherichia coli, purified, modified onto ELISA plate
Excerpt: The screening method of an amino acid according to an embodiment of the present invention included the following steps: • 1. UlaG protein was largely expressed by Escherichia coli • 2. The UlaG protein in step 1 was purified, and then modified onto an enzyme-linked immunosorbent assay (ELISA) plate. • 3. Phage display peptide system was used to perform the screening. The phage display peptide system used bacteriophages with various peptide segments to contact the UlaG protein. After a process of repeated binding, washing, eluting, amplifying, and re-binding, the bacteriophage that can bind to the UlaG protein was selected. • 4. The selected bacteriophage in step 3 was amplified and sequenced by polymerase chain reaction (PCR). The amino acid sequence that can bind to the UlaG protein was then obtained.
Therefore, an amino acid sequence including the sequence shown in SEQ ID NO: 1 or SEQ ID NO: 2 can be used in the recognition of the UlaG protein.

[2] = tested on: Streptococcus pneumoniae; assay: Field-effect transistor biological sensing device, detecting of Streptococcus pneumoniae; type: binding, Streptococcus pneumoniae ATCC 49136; conditions: amino acid sequence modified onto field-effect transistor; broths of Streptococcus pneumoniae with different concentrations; FIG. 3
Excerpt: UlaG protein is expressed in the cell wall of Streptococcus pneumoniae. The following experimental example used the biological sensing device of the present invention to detect whether the sample included Streptococcus pneumoniae, and the detecting method included the following steps: • 1. The amino acid sequence including the sequence shown in SEQ ID NO: 1 was largely expressed by Escherichia coli. • 2. The amino acid sequence in step 1 was purified, and then modified onto a surface of a field-effect transistor. • 3. The field-effect transistor modified with the amino acid sequence in step 2 was contact to broths of Streptococcus pneumoniae with different concentrations, and the potential difference of the surface of the field-effect transistor modified was measured. The strain of Streptococcus pneumoniae used in this experimental example was ATCC 49136.
FIG. 2 is a schematic view of a biological sensing device 300 according to an embodiment of the present invention detecting a biomolecule 400. […]
FIG. 3 is a potential difference-bacterial concentration diagram of an embodiment of the present invention for the detecting experiment, which the bacterial concentration is represented by the number of colonies per milliliter (mL) of the broth. […] The Streptococcus pneumoniae can be detected by the change in the surface potential.

[3] = tested on: Streptococcus mutans; assay: Field-effect transistor biological sensing device, comparative example Streptococcus mutans; type: binding; conditions: FIG. 4
Protocol: Furthermore, the present experimental example applied Streptococcus mutans as a comparative example using the abovementioned biological sensing device 300 and detecting method. The field-effect transistor modified with the amino acid sequence including the sequence shown in SEC) ID NO: 1 was contact to broths of Streptococcus mutans with different concentrations, and the potential difference of the surface of the field-effect transistor modified was measured.
FIG. 4 is a potential difference-bacterial concentration diagram of a comparative example for a detecting experiment, which the bacterial concentration is represented by the number of colonies per mL of the broth. […] Therefore, Streptococcus […] is not recognized by and bound to the amino acid sequence of the biological sensing device of the present invention.

Substance: SEQ ID NO: 1: short sequence of 7 amino acids, selected by phage display, that binds the UlaG protein; used on the field-effect transistor (ENIMPVL; amino acid sequence bound to UlaG protein)
- binding affinity to the UlaG protein [1]: high binding affinities
- potential difference of the surface of the field-effect transistor vs bacterial concentration [2]: increased with the increase of the bacterial concentration
- potential difference of the surface of the field-effect transistor vs bacterial concentration ([3]; amino acid sequence modified onto field-effect transistor, broths of Streptococcus mutans with different concentrations): did not change accordingly with the increase of the bacterial concentration
- reaction of the amino acid sequence with Streptococcus mutans ([3]; field-effect transistor device): does not react

Substance: SEQ ID NO: 2: short sequence of 7 amino acids, selected by phage display, that binds the UlaG protein (ERIMPVL; amino acid sequence bound to UlaG protein)
- binding affinity to the UlaG protein [1]: high binding affinities
